As usually defined, the inhibition is how much of the control response was suppressed.

The record followed here is ChEMBL document CHEMBL1938230, “6-Position optimization of tricyclic 4-quinolone-based inhibitors of glycogen synthase kinase-3β: discovery of nitrile derivatives with picomolar potency” (Bioorg Med Chem Lett, 2012).

What all share (type): cell-free
The target in assay [1] is T1, Phosphatidylinositol 4,5-bisphosphate 3-kinase catalytic subunit delta isoform (Homo sapiens) (UniProt O00329).
T1 sequence (whole entry): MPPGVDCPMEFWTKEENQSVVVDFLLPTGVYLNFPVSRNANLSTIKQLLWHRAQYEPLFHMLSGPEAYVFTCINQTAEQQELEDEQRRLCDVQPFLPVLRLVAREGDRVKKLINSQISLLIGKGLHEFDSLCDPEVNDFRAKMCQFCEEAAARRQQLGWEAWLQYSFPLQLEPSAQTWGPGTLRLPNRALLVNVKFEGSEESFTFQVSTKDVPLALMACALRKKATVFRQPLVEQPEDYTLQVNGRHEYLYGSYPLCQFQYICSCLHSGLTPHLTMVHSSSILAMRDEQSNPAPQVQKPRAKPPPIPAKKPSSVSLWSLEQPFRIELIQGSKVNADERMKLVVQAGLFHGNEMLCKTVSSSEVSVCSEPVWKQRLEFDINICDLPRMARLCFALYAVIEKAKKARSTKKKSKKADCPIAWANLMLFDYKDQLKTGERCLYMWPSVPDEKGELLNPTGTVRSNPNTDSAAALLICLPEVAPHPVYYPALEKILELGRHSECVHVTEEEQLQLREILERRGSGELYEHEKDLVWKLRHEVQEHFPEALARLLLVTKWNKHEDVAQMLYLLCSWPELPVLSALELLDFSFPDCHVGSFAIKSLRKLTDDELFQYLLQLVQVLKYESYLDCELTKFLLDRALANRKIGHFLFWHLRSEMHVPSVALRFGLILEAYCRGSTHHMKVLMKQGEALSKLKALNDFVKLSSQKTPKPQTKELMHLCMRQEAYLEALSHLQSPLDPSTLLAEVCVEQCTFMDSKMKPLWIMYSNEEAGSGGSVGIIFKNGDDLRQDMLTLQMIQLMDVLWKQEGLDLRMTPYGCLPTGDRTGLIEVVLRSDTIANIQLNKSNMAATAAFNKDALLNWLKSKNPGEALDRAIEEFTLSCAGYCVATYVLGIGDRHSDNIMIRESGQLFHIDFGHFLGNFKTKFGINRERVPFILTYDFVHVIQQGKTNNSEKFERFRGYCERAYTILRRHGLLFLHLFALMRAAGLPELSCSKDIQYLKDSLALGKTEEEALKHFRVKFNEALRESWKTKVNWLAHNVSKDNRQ
Put plainly: Inhibition of human PIK3CD in HL-60 cells lysate assessed as reduction of labeling of acyl-phosphate ATP probe at 100 nM.

The target in assay [2] is T2, Phosphatidylinositol 5-phosphate 4-kinase type-2 alpha (Homo sapiens) (UniProt P48426).
T2 sequence (whole entry): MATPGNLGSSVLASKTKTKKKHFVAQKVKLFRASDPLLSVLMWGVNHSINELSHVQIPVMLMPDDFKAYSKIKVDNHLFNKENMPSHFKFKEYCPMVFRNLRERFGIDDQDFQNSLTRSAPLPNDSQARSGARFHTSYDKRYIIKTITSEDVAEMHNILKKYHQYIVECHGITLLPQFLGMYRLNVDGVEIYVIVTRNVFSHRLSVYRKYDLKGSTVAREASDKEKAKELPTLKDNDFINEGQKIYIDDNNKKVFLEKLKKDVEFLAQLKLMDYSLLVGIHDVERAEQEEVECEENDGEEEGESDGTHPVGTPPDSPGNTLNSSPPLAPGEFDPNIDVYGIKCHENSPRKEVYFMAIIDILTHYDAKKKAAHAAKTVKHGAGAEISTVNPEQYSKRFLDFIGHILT
Put plainly: Inhibition of human PIP4K2A in HL-60 cells lysate assessed as reduction of labeling of acyl-phosphate ATP probe at 100 nM.

For assay [3], the target named is eIF-2-alpha kinase GCN2 (Homo sapiens) (UniProt Q9P2K8). Put plainly: Inhibition of human GCN2 domain2 in HL-60 cells lysate assessed as reduction of labeling of acyl-phosphate ATP probe at 100 nM.
eIF-2-alpha kinase GCN2 (Homo sapiens), sequence (Q9P2K8 whole entry, the tested form may be a part): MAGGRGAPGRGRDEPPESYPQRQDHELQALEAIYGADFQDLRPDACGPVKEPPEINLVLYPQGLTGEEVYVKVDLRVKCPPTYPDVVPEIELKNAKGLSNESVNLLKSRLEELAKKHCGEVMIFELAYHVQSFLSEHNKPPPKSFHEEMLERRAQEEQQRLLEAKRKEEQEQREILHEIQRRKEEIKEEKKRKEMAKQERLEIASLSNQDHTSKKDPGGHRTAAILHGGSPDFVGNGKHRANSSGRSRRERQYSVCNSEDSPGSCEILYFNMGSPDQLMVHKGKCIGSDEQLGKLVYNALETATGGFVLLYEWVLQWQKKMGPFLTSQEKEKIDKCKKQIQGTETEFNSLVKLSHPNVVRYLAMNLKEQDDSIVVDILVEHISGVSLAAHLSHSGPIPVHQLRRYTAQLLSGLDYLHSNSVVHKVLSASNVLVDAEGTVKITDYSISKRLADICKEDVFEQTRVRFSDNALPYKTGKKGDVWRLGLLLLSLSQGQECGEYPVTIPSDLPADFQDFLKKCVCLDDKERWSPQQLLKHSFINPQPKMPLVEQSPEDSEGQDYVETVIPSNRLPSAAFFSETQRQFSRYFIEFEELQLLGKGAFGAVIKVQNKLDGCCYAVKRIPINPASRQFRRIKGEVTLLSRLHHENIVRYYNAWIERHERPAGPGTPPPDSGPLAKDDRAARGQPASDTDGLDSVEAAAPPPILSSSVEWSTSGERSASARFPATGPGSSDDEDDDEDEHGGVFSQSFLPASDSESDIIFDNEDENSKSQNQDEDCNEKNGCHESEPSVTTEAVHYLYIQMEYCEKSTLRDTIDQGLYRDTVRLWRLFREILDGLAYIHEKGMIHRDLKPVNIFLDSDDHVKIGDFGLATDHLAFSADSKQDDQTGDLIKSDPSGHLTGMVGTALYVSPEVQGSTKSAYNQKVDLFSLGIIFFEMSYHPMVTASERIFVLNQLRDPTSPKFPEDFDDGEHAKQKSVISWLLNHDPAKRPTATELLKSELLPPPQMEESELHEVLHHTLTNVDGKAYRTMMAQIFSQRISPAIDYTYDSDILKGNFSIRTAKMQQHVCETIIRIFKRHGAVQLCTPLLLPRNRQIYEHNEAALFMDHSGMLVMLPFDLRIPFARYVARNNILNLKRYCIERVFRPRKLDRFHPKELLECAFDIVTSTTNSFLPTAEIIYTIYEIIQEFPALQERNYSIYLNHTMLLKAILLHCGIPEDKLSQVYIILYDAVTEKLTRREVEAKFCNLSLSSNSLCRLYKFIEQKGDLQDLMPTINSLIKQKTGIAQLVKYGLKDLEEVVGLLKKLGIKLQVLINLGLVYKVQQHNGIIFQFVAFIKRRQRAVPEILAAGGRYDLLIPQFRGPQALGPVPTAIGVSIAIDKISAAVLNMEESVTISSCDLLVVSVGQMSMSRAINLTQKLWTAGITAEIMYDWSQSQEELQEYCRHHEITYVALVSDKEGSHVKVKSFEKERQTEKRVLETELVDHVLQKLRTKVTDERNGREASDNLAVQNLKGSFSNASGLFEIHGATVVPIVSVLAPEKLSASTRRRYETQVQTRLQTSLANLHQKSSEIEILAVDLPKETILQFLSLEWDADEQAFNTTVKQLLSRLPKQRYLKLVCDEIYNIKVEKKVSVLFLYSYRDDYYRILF
Assay [4] concerns the target Tyrosine-protein kinase Fer (Homo sapiens) (UniProt P16591). In words: Inhibition of human FER in HL-60 cells lysate assessed as reduction of labeling of acyl-phosphate ATP probe at 100 nM.
Assay [5] deals with Tyrosine-protein kinase JAK1 (Homo sapiens) (UniProt P23458). Put plainly: Inhibition of human JAK1 domain1 in HL-60 cells lysate assessed as reduction of labeling of acyl-phosphate ATP probe at 100 nM.
Tyrosine-protein kinase JAK1 (Homo sapiens), sequence (P23458 whole entry, the tested form may be a part): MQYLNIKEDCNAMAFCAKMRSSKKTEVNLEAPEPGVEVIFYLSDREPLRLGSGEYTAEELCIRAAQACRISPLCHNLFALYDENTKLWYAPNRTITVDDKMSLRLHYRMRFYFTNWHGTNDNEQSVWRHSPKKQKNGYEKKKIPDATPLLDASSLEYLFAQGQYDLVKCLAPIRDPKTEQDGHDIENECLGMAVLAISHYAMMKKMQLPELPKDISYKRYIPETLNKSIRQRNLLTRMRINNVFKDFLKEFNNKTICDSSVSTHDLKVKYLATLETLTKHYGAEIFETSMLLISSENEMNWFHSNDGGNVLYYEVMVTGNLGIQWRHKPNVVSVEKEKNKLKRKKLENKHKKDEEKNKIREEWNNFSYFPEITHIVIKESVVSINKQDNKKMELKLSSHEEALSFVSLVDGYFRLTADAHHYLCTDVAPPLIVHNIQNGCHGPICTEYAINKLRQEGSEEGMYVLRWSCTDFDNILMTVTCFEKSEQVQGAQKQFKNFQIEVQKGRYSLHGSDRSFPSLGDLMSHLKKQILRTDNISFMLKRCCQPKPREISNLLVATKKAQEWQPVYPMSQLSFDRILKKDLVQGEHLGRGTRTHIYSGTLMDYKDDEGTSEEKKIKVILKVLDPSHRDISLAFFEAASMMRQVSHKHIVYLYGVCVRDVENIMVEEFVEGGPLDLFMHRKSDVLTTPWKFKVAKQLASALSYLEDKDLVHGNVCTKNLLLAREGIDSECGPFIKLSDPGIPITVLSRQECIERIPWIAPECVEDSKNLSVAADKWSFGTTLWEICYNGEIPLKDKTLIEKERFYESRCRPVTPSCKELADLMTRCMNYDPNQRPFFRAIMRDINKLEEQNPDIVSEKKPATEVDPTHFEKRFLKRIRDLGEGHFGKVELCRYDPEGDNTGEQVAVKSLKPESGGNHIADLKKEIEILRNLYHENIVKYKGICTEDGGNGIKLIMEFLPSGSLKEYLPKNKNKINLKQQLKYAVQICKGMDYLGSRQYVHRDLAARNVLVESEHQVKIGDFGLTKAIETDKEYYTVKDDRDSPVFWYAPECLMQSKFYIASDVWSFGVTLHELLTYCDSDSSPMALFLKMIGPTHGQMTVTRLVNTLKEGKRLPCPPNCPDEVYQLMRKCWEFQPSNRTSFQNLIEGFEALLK
Assay [6] has as its target Glycogen synthase kinase-3 alpha (Homo sapiens) (UniProt P49840). In words: Inhibition of human GSK3alpha in HL-60 cells lysate assessed as reduction of labeling of acyl-phosphate ATP probe at 100 nM.
Assay [7] has as its target Mitogen-activated protein kinase 14 (Homo sapiens) (UniProt Q16539). Put plainly: Inhibition of human P38alpha in HL-60 cells lysate assessed as reduction of labeling of acyl-phosphate ATP probe at 100 nM.

Mitogen-activated protein kinase 14 (Homo sapiens), sequence (Q16539 whole entry): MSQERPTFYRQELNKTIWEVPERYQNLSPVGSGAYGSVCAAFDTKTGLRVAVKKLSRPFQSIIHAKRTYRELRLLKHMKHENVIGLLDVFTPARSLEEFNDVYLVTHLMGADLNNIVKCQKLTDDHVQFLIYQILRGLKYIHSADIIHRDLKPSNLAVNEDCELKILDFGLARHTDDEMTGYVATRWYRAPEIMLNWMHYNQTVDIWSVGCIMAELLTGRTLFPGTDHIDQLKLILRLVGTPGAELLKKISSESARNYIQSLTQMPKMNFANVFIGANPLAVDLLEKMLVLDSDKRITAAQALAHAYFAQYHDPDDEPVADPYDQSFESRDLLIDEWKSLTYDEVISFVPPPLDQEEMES
Glycogen synthase kinase-3 alpha (Homo sapiens), sequence (P49840 2-483 limits assumed): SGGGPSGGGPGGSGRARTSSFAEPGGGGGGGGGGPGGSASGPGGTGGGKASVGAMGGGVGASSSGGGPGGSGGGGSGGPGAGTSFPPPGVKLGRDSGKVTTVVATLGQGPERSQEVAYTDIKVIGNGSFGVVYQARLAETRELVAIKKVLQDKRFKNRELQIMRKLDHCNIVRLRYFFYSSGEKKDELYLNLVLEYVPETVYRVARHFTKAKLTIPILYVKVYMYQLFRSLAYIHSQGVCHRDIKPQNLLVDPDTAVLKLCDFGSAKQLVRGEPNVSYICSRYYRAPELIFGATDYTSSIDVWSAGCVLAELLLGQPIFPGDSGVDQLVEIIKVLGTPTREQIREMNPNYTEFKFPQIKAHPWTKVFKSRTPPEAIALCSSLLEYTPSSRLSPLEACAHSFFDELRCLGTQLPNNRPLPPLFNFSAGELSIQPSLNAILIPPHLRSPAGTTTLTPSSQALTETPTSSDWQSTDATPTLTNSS
Tyrosine-protein kinase Fer (Homo sapiens), sequence (P16591 whole entry, looked up, the tested form may be a part): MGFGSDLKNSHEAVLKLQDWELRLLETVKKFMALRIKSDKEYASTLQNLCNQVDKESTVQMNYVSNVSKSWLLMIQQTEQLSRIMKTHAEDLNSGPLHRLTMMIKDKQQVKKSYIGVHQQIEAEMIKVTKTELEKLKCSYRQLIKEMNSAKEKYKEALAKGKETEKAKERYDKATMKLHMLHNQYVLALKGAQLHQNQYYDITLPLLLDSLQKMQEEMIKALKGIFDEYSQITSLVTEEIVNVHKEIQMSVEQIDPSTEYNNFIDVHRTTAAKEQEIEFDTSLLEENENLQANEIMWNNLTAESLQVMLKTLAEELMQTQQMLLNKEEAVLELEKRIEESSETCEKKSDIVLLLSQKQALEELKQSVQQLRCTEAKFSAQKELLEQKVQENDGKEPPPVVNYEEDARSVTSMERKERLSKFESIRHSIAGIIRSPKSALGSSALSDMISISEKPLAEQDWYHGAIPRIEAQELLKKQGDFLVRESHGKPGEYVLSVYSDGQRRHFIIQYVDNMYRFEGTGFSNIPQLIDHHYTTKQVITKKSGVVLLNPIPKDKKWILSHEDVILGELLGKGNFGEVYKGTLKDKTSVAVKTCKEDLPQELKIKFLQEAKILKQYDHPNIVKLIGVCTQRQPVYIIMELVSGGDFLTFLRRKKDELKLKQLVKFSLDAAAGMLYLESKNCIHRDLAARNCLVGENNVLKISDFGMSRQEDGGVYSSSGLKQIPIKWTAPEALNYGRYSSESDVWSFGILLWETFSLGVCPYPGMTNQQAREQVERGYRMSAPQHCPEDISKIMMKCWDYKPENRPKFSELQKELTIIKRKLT

Regarding `C[C@H]1COc2c(NCCCn3cccn3)c(F)c(N)c3c(=O)c(C#N)cn1c23`, the inhibition is < 35% in assay [1]; < 35% in assay [2]; < 35% in assay [3]; < 35% in assay [4]; < 35% in assay [5]; > 99.5% in assay [6]. The inhibition in assay [7] is < 35%.
On to `C[C@H]1COc2c(NCCCc3ccccn3)c(F)c(N)c3c(=O)c(C(=O)O)cn1c23`, for which the inhibition in assay [1] is < 35%; in assay [2] it was < 35%; in assay [3], < 35%; in assay [4] it was < 35%; in assay [5], < 35%; in assay [6], 94.3%. Also, the inhibition in assay [7] is < 35%.
For `C[C@H]1COc2c(NCCCn3cccn3)c(F)c(N)c3c(=O)c(C(=O)O)cn1c23`, the inhibition in assay [1] is < 35%; in assay [2], < 35%; in assay [3] it was < 35%; in assay [4], < 35%; in assay [5], < 35%; in assay [6] it was 95.2%. Besides, the inhibition in assay [7] is < 35%.
`C[C@H]1COc2c(NCCCc3ccccn3)c(F)c(N)c3c(=O)c(C#N)cn1c23`: the inhibition was < 35% in assay [1]; < 35% in assay [2]; < 35% in assay [3]; < 35% in assay [4]; < 35% in assay [5]; > 99.5% in assay [6]. Further, the inhibition in assay [7] was < 35%.
